# Laboratory results: US5589568A (priority 1994, dated 1996)
# Where no end group is shown, it is not given here.
# Experiments:
# Gi [1] = test: release of [α-32P]GDP from Gi (GDP exchange); assay type: biochemical, rabbit
# Method: FIG. 1. Stimulation of GDP/GTP exchange by analogs of MP. The release of [α-^32 P]GDP from Gi was measured at 30° C. in the presence of the concentrations of several different MP analogs whose structures are listed in Table I: O, Mas7; Δ, Mas8; .tangle-solidup.Mas9; .quadrature., Mas19; .oval-solid., MP; .box-solid., MP-X; .gradient., MAS14; .tangle-soliddn., Mas6. First order dissociation rate constants (kdiss) were determined from duplicate four-point time courses as described under "Experimental Procedures."
# Purification of αo and βγ was completed by chromatography on DEAE-Sephacel that was eluted with a gradient of 0-250 mM NaCl in the presence of 0.6% Lubrol and AMF. AMF was removed by chromatography on hydroxyapatite and Sephadex G-25 as described by Sternweis, et al., 1981, incorporated herein by reference. Gi was purified as the αβγ trimer from rabbit liver as reported by Bokoch, et al., 1984, incorporated herein by reference. The Gi used in this study could be recognized on a Western blot by anti-Gi -1 and anti-Gi -3 antibodies but not by anti-Gi -2 antibody, as documented by Mumby, et al., 1983, incorporated herein by reference. Purified recombinant αi,1 was synthesized in E. coli prepared to the specifications of Linder, incorporated herein by reference. During purification, G protein α subunits were assayed by [^35 S] GTPγ S binding according to the method of Higashijima, 1987, incorporated herein by reference). By subunits were assayed according to their ability to deactivate Gs, as detailed by Northup, 1983, incorporated herein by reference.
# G proteins were reconstituted into phospholipid vesicles composed of dioleoyl-PC/bovine brain PS/1-palmitoyl,2-oleoyl-PE (3:4:3) as reported previously by Higashijima et al., 1988, incorporated herein by reference.
# To measure the MP-catalyzed dissociation of [α-^32 P]GDP or [^35 S]-GTPγS, labeled nucleotide was first bound to G protein (approximately […] in 50 μl) by incubation of the Lubrol-solubilized G protein with a molar excess of nucleotide in assay buffer that contained 10 mM MgSO4 and 0.1% Lubrol. Incubation was for 20 min at 20° C. (for Go) or for 30 min at 30° C. (for Gi), In the case of [α-^32 P]GDP, EDTA was then added to 12 mM. […] Bound nucleotide was determined by binding to nitrocellulose filters as described (Ferguson, 1986), and incorporated herein by reference. […] Data were analyzed using a nonlinear least squares fitting program.
# Go [2] = molecular target: T1, Go (Bos taurus, UniProt P08239); test: steady state GTPase activity of Go in phospholipid vesicles; assay type: biochemical, bovine
# T1 construct: proteins were extracted from bovine cerebral cortical membranes; from tissue; host or cells: bovine brain (cerebral cortical membranes)
# T1 sequence (P08239 2-354 limits assumed): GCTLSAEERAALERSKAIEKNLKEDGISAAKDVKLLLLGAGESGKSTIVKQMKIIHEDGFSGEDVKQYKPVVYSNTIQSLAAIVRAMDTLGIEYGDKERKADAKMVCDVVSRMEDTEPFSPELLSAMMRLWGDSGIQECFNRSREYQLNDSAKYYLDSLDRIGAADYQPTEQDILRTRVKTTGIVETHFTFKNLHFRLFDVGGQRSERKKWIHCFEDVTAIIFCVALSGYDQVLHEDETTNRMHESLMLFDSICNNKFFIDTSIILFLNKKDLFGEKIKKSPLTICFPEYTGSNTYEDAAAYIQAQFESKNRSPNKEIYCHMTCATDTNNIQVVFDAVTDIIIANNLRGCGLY
# T1 sequence (P62871 2-340 partner limits assumed): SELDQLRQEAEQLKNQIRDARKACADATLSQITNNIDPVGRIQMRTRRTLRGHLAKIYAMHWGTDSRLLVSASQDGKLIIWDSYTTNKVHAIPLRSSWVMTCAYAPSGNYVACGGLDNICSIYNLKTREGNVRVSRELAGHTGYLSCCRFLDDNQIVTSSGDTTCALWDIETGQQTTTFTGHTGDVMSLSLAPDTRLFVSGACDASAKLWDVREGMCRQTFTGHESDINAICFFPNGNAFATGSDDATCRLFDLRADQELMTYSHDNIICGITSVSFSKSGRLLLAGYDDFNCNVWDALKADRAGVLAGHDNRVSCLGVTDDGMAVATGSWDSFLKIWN
# T1 sequence (P63212 2-68 partner limits assumed): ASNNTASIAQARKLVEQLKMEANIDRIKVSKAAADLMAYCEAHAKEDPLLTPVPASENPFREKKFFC
# Gi [3] = test: steady state GTPase activity of Gi in phospholipid vesicles; assay type: biochemical, rabbit;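 note: Steady-state GTP hydrolysis by Gi measured in a detergent-free buffer containing 1.1 mM MgSO4 plus the specified guanine nucleotide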
# Method: The concentration of free Mg^2+ in assay medium that contains 5 mM EDTA and no added Mg^2+ is estimated to be 0.1-0.2 nM according to Brandt et al., 1988 and 1983.
# [4] = critical micelle concentration; assay type: physicochemical
# Excerpt: MP was synthesized and purified as described by Saito and his colleagues (Chem. Pharm. Bull., 32:2187-2193, 1984, incorporated herein by reference). The MP analogs listed in Table I were synthesized by standard solid phase methods and purified by C-4 HPLC using an acetonitrile gradient in 0.1% trifluoroacetic acid. […] The identity of the peptides was monitored by 400-MHz or 250-Mhz ^1 H NMR spectroscopy for MP and MP-X and by mass spectroscopy for the other analogs. […] BAC was purchased from Sigma, and other alkylammonium compounds were from Aldrich. The critical micelle concentration of BAC was measured in the buffer used for GTPase assays (see below) using 1,6-diphenyl-1,3,5-hexatriene according to the method of Schrock and Gennis, (J. Biol. Chem, 252:5990-5995, 1977, incorporated herein by reference). The critical micelle concentration was approximately 20 μM.
# Gs = Gs (Homo sapiens, UniProt P63092); test: steady state GTPase activity of Gs; assay type: biochemical; conditions: Table IV; for EC50: read-out: Gs af. (apparent affinity, estimated by EC50 of GTPase activity)
# Chain of Gs (P63092 whole entry): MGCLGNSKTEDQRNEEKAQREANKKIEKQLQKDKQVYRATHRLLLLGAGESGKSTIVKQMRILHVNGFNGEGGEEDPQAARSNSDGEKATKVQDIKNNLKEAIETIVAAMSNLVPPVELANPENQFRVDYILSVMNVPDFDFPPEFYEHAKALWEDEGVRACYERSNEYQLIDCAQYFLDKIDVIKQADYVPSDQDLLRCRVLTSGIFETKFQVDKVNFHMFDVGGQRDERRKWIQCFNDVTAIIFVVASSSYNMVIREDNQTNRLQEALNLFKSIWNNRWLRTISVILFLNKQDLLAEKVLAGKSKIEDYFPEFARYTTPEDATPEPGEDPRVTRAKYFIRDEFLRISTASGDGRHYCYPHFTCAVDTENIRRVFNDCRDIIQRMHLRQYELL
# Method: Methods for the assay of steady state GTP hydrolysis and GTPγS binding have been described previously by Higashijima, 1987, and Ferguson, 1986, and incorporated herein by reference. Unless noted otherwise, assays of steady state GTP hydrolysis and of the binding and dissociation of guanine nucleotides were carried out in the buffer described previously, but without detergent and with 1.1 mM MgSO4 and the nucleotide specified in the text. When necessary, the concentration of free Mg^2+ was adjusted using EDTA buffers as described previously by Higashijima, 1987, and incorporated herein by reference.
# The data set forth in the following tables represent data generated by the inventors employing the steady state GTP hydrolysis, expressed as molar turnover numbers, are described herein under the "Assay" section of the Experimental Procedures in Example 1. The data has been classified according to the criteria outlined below and the effects of each peptide and modified variant on Go, Gi, and Gs have been tabulated. Table III below sets forth data generated for various mastoparan analogues designed by the inventors, in comparison with the various naturally-occurring mastoparans (e.g., MP, MP-A and MP-T). Table IV sets forth similar data generated for various receptor-based peptides designed by the inventors based on a consideration of various G-protein linked receptors.
# Apparent affinity (af.) and apparent efficacy (ef.) were estimated by EC50 and maximum turnover number of GTPase activity.
# [5] = circular dichroism, fractional helical content; assay type: physicochemical; conditions: 20 μM peptide, pH 7.5, 25° C.
# Method: CD spectra of peptides were measured using an Aviv model 60DS spectrometer at 25° C. in 1-mm pathlength cells. Spectra were scanned at 1 nm intervals for 3 s, and three scans were averaged. Peptides were dissolved at 20 μM in 5 mM Tris-Cl, pH 7.5, in the presence or absence of sonicated 1 mM 1-palmitoyl,2-oleoylphosphatidylcholine. Fractional helical content for each peptide was calculated according to the assumption that, for 100% helix and 14 peptide bonds, θ222 =36,000 (1-2.6/14).
# Fractional helical contents of some of the peptides
# [6] = tested on: muscarinic cholinergic receptor; assay type: binding, porcine
# Go [7] = molecular target: T1, Go; test: rate of hydrolysis of protein-bound [γ-32P]GTP; assay type: biochemical, bovine
# Method: The rate of hydrolysis of protein-bound [γ^32 P]GTP was measured essentially as described previously (Higashijima, 1987) at 20° C. in assay medium that contained 2 ppm Lubrol 12A9. Go (10 nM) was incubated in assay medium for 16 min with 100 nM [γ-^32 P]GTP to allow nucleotide to bind. Hydrolysis was initiated by the addition of 1.3 mM MgSO4. Excess unlabeled GTP was also added such that only a single turnover was measured. The production of [^32 P]Pi was measured as described by Higashijima, 1987.
# [8] = lytic capacity / toxicity of mastoparan-based peptides
molecule,measurement,setting,value
"CCCCCCCCCCCCC[N+](C)(C)Cc1ccccc1 [BAC (C-12), benzalkonium chloride]",BAC concentration range in which the EC50 for Mas7 increased sharply,"Gi [1]; Gi, FIG. 4B",1 to 3 µg/mL
same,inhibition of Mas7-stimulated GDP exchange on Gi,Gi [1]; intermediate concentrations of Mas7,≤ 60%
same,effect on basal GDP exchange rate of Gi,Gi [1]; no Mas7,no detectable inhibition
same,Turnover number Go 10 μg/ml,"Go [2]; 10 μg/ml amine, 15 min at 20° C., PE/PC/PS vesicles",0.33 min⁻¹
same,Turnover number Go 100 μg/ml,"Go [2]; 100 μg/ml amine, 15 min at 20° C.",0.8 min⁻¹
same,maximal stimulation of Go,"Go [2]; at about 30 μg/ml (~0.1 mM) BAC, FIG. 5",20 fold
same,effect on stimulation of Gi GTPase activity by Mas7 and MP,"Gi [3]; 3 μg/ml BAC, 10 μM Mas7 (FIG. 3)",antagonized
same,Turnover number Gi 10 μg/ml,"Gi [3]; 10 μg/ml amine, 30 min at 30° C.",0.08 min⁻¹
same,Turnover number Gi 100 μg/ml,"Gi [3]; 100 μg/ml amine, 30 min at 30° C.",0.04 min⁻¹
same,critical micelle concentration,[4]; as restated,20 µg/mL
same,critical micelle concentration,"[4]; buffer used for GTPase assays, 1,6-diphenyl-1,3,5-hexatriene",approximately 20 μM
CC[C@H](C)[C@H](N)C(=O)N[C@@H](CC(N)=O)C(=O)N[C@@H](CC(C)C)C(=O)N[C@@H](CCCCN)C(=O)N[C@@H](C)C(=O)N[C@@H](CC(C)C)C(=O)N[C@@H](C)C(=O)N[C@@H](C)C(=O)N[C@@H](CC(C)C)C(=O)N[C@@H](C)C(=O)N[C@@H](CCCCN)C(=O)N[C@@H](CCCCN)C(=O)N[C@H](C(=O)N[C@@H](CC(C)C)C(N)=O)[C@@H](C)CC [MP],stimulation of Gi,"Gi [1]; GDP exchange assay, typical",about 15 fold
same,EC50,Go [2],3 to 10 µM
same,GTPase Go 10 μM,"Go [2]; 10 μM peptide, 15 min at 20° C., PE/PC/PS vesicles",0.59 min⁻¹
same,GTPase Go 100 μM,"Go [2]; 100 μM peptide, 15 min at 20° C., PE/PC/PS vesicles",0.95 min⁻¹
same,"Goo ef. (apparent efficacy, maximum turnover number of GTPase activity)",Go [2]; Table IV,E (Excellent (E): 30-10 fold)
same,GTPase Gi 10 μM,"Gi [3]; 10 μM peptide, 30 min at 30° C., PE/PC/PS vesicles",0.19 min⁻¹
same,GTPase Gi 100 μM,"Gi [3]; 100 μM peptide, 30 min at 30° C., PE/PC/PS vesicles",0.47 min⁻¹
same,stimulation of Gi,"Gi [3]; GTPase assay, typical",about 15 fold
same,"G1 ef. (apparent efficacy, maximum turnover number of GTPase activity)",Gi [3]; Table IV,E (Excellent (E): 30-10 fold)
same,EC50,"Gi [3]; Table IV, read-out: G1 af. (apparent affinity, estimated by EC50 of GTPase activity)",10 to 30 µM
same,"Gs ef. (apparent efficacy, maximum turnover number of GTPase activity)",Gs,F (Fair (F): 2-5 fold)
same,EC50,Gs,3 to 10 µM
same,% α Helix - PC,[5]; absence of 1 mM phospholipid,19%
same,% α Helix + PC,[5]; presence of 1 mM phospholipid,61%
same,effect on affinity of the receptor for the antagonist [3H]QNB,[6],did not alter
same,effect on the receptor's affinity for acetylcholine,"[6]; 30 μM peptide, […]",decreased the receptor's affinity for acetylcholine
same,effect on rate of hydrolysis of bound GTP,Go [7],did not alter
INLKALAALKKALL-NH2 [ER25],EC50,Go [2],10 to 30 µM
same,EC50,Gs,10 to 30 µM
same,toxicity (in words),[8],least toxic
